# Patent US20120004228A1, “Bis Aromatic Compounds for Use as LTC4 Synthase Inhibitors” (BIOLIPOX AB, priority 2009, published 2012)
# Biological target: T1, Recombinant human LTC4 synthase (Homo sapiens, UniProt Q16873)
# T1 construct: made in house; host or cells: Pichia pastoris ('Piccia pastoralis' [sic])
# T1 sequence (Q16873 1-150): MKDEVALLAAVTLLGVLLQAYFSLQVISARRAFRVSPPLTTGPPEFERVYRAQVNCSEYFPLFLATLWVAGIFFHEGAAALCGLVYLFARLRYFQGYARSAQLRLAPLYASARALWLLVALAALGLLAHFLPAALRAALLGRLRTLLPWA
# Assay: In vitro LTC4 synthase assay (LTA4 to LTC4, HTRF detection)
# Assay type: biochemical
# Settings: not given
row,IC50 [nM],SMILES
1,470,"CN(c1ccc(Cl)cc1)c1ccc(C(=O)c2cc(C(=O)O)cc(N(C(=O)CO)c3ccccc3)c2)nc1 [9:38, 3-{5-[(4-Chlorophenyl)(methyl)amino]picolinoyl}-5-(2-hydroxy-N-phenylacet-amido)benzoic acid]"
2,206,"CN(c1ccc(Cl)cc1)c1ccc(C(=O)c2cc(Nc3ccccc3OC(F)(F)F)cc(C(=O)O)c2)cc1 [10:4, 3-{4-[(4-Chlorophenyl)(methyl)amino]benzoyl}-5-(2-(trifluoromethoxy)-phenylamino)benzoic acid]"
3,277,"CN(c1ccc(Cl)cc1)c1ccc(C(=O)c2cc(C(=O)O)cc(N(C(=O)C3CCC3)c3ccccc3)c2)cc1 [Example 10:31, 3-{4-[(4-Chlorophenyl)(methyl)amino]benzoyl}-5-[(N-phenyl)cyclobutylcarboxamido]benzoic acid]"
4,252,"CN(c1ccc(Cl)cc1)c1ccc(C(=O)c2cc(C(=O)O)cc(N(C)C3CCOCC3)c2)cc1 [10:22, 3-{4-[(4-Chlorophenyl)(methyl)amino]benzoyl}-5-[methyl(4-tetrahydropyranyl)-amino]benzoic acid]"
5,188,"COc1cccc(Oc2cc(C(=O)O)cc(C(=O)c3ccc(N(C)c4ccc(Cl)cc4)cn3)c2)c1 [8:3, 3-{5-[(4-Chlorophenyl)(methyl)amino]picolinoyl}-5-(3-methoxyphenoxy)benzoic acid]"
6,40,"CC(=O)N(c1ccccc1)c1cc(C(=O)O)cc(C(=O)c2ccc(N(CC3CC3)c3ccc(Cl)cc3)cn2)c1 [9:19, 3-{5-[(4-Chlorophenyl)(cyclopropylmethyl)amino]picolinoyl}-5-(N-phenylacet-amido)benzoic acid]"
7,706,"CN(c1ccc(Cl)cc1)c1ccc(C(=O)c2cc(C(=O)O)cc(C(=O)Nc3ccccc3OC(F)F)c2)cc1 [2:13, 3-{4-[(4-Chlorophenyl)(methyl)amino]benzoyl}-5-[2-(difluoromethoxy)phenyl-carbamoyl]benzoic acid]"
8,276,"CN(c1ccc(Cl)cc1)c1ccc(C(=O)c2cc(NC(=O)c3cccc(Cl)c3)cc(C(=O)O)c2)nc1 [2:9, 3-(3-Chlorobenzamido)-5-{5-[(4-chlorophenyl)(methyl)amino]picolinoyl}benzoic acid]"
9,122,"CN(c1ccc(Cl)cc1)c1ccc(C(=O)c2cc(C(=O)O)cc(N(CCC3OCCO3)c3ccccc3)c2)nc1 [9:46, 3-{[2-(1,3-Dioxolan-2-yl)ethyl](phenyl)amino}-5-{5-[(4-chlorophenyl)(methyl)-amino]picolinoyl}benzoic acid]"
10,531,"CN(c1ccc(Cl)cc1)c1ccc(C(=O)c2cc(C(=O)O)cc(N3CCc4ccccc4C3)c2)nc1 [9:13, 3-{5-[(4-Chlorophenyl)(methyl)amino]picolinoyl}-5-(1,2,3,4-tetrahydroiso-quinolin-2-yl)benzoic acid]"
11,75,"CN(Cc1cccc(Cl)c1)c1cc(C(=O)O)cc(C(=O)c2ccc(N(C)c3ccc(Cl)cc3)cn2)c1 [9:10, 3-[(3-Chlorobenzyl)(methyl)amino]-5-{5-[(4-chlorophenyl)(methyl)amino]-picolinoyl}benzoic acid]"
12,160,"CN(c1ccc(Cl)cc1)c1ccc(C(=O)c2cc(C(=O)O)cc(N(C(=O)CC(C)(C)C)c3ccccc3)c2)nc1 [9:18, 3-{5-[(4-Chlorophenyl)(methyl)amino]picolinoyl}-5-(3,3-dimethyl-N-phenyl-butylamido)benzoic acid]"
13,33,"CN(c1ccc(Cl)cc1)c1ccc(C(=O)c2cc(C(=O)O)cc(N(C)c3ccccc3)c2)nc1 [9:6, 3-{5-[(4-Chlorophenyl)(methyl)amino]picolinoyl}-5-[methyl(phenyl)amino]-benzoic acid]"
14,362,"CN(c1ccc(Cl)cc1)c1ccc(C(=O)c2cc(C(=O)O)cc(N(CCCCO)c3ccccn3)c2)nc1 [9:40, 3-{5-[(4-Chlorophenyl)(methyl)amino]picolinoyl}-5-[(4-hydroxybutyl)(2-pyridyl)-amino]benzoic acid]"
15,192,"CN(c1ccc(Cl)cc1)c1ccc(C(=O)c2cc(C(=O)O)cc(N(C(=O)CC3CCCC3)c3ccccc3)c2)cc1 [10:39, 3-{4-[(4-Chlorophenyl)(methyl)amino]benzoyl}-5-[2-cyclopentyl-(N-phenyl)-acetamido]benzoic acid]"
16,170,"CN(Cc1ccc(Cl)cc1)c1cc(C(=O)O)cc(C(=O)c2ccc(N(C)c3ccc(Cl)cc3)cn2)c1 [9:12, 3-((4-Chlorobenzyl)(methyl)amino)-5-{5-[(4-chlorophenyl)(methyl)amino]-picolinoyl}benzoic acid]"
17,143,"COc1cccc(Oc2cc(C(=O)O)cc(C(=O)c3ccc(N(C)c4ccc(Cl)cc4)cc3)c2)c1 [8:14, 3-{4-[(4-Chlorophenyl)(methyl)amino]benzoyl}-5-(3-methoxyphenoxy)benzoic acid]"
18,744,"COc1ccc(NC(=O)c2cc(C(=O)O)cc(C(=O)c3ccc(N(C)c4ccc(Cl)cc4)cn3)c2)cc1 [2:6, 3-{5-[(4-Chlorophenyl)(methyl)amino]picolinoyl}-5-(4-methoxyphenyl-carbamoyl)benzoic acid]"

row,IC50 [nM],SMILES
1,646,"CCCCCCC(=O)Nc1ccc(C(=O)c2ccc(Nc3ccc(Cl)cc3)cc2C(=O)O)cc1 [Example 4:1, 5-(4-Chlorophenylamino)-2-(4-heptylamidobenzoyl)benzoic acid]"
2,463,"CN(c1ccc(Cl)cc1)c1ccc(C(=O)c2cc(Nc3ccc4c(c3)OCCO4)cc(C(=O)O)c2)nc1 [9:33, 3-{5-[(4-Chlorophenyl)(methyl)amino]picolinoyl}-5-(3,4-ethylenedioxy-phenylamino)benzoic acid]"
3,67,"CN(c1ccc(Cl)cc1)c1ccc(C(=O)c2cc(Oc3ccccc3)cc(C(=O)O)c2)nc1 [Example 8:1, 3-{5-[(4-Chlorophenyl)(methyl)aminol]picolinoyl}-5-phenoxybenzoic acid]"
4,216,"CN(c1ccc(Cl)cc1)c1ccc(C(=O)c2cc(C(=O)O)cc(N(C)c3ccc4c(c3)OCCO4)c2)nc1 [9:34, 3-{5-[(4-Chlorophenyl)(methyl)amino]picolinoyl}-5-[(3,4-ethylenedioxy-phenyl)(methyl)amino]benzoic acid]"
5,183,"CC(C)OCC(O)CN(c1ccccc1)c1cc(C(=O)O)cc(C(=O)c2ccc(N(C)c3ccc(Cl)cc3)cc2)c1 (centres unmarked) [Example 10:38, 3-{4-[(4-Chlorophenyl)(methyl)amino]benzoyl}-5-[(2-hydroxy-3-isopropoxy-propyl)(phenyl)amino]benzoic acid]"
6,25,"CN(c1ccc(Cl)cc1)c1ccc(C(=O)c2cc(C(=O)O)cc(N(CC3CCCCO3)c3ccccc3)c2)cc1 (centres unmarked) [10:36, 3-{4-[(4-Chlorophenyl)(methyl)amino]benzoyl}-5-{pheny[(tetrahydropyran-2-yl)methyl]amino}benzoic acid]"
7,118,"CN(c1ccc(Cl)cc1)c1ccc(C(=O)c2cc(NCc3ccc(Cl)cc3)cc(C(=O)O)c2)cc1 [10:20, 3-(4-Chlorobenzylamino)-5-{4-[(4-chlorophenyl)(methyl)amino]benzoyl}-benzoic acid]"
8,133,"CN(c1ccc(Cl)cc1)c1ccc(C(=O)c2cc(C(=O)O)cc(N(CC3(C)COC3)c3ccccc3)c2)cc1 [10:27, 3-{4-[(4-Chlorophenyl)(methyl)amino]benzoyl}-5-{[(3-methyloxetan-3-yl)-methyl](phenyl)amino}benzoic acid]"
9,250,"COc1cccc(COc2cc(C(=O)O)cc(C(=O)c3ccc(N(C)c4ccc(Cl)cc4)cn3)c2)c1 [11:3, 3-{5-[(4-Chlorophenyl)(methyl)amino]picolinoyl}-5-(3-methoxybenzyloxy)-benzoic acid]"
10,76,"CN(c1ccc(Cl)cc1)c1ccc(C(=O)c2cc(Oc3ccc(Cl)cc3)cc(C(=O)O)c2)nc1 [8:5, 3-(4-Chlorophenoxy)-5-{5-[(4-chlorophenyl)(methyl)amino]picolinoyl}benzoic acid]"
11,483,"COc1ccc(Nc2cc(C(=O)O)cc(C(=O)c3ccc(N(C)c4ccc(Cl)cc4)cc3)c2)cc1OC [10:7, 3-{4-[(4-Chlorophenyl)(methyl)amino]benzoyl}-5-(3,4-dimethoxyphenyl-amino)benzoic acid]"
12,25,"CN(c1ccc(Cl)cc1)c1ccc(C(=O)c2cc(C(=O)O)cc(N(CCCCO)c3ccccc3)c2)nc1 [9:45, 3-{5-[(4-Chlorophenyl)(methyl)amino]picolinoyl}-5-[(4-hydroxybutyl)(phenyl)-amino]benzoic acid]"
13,925,"COc1ccc(NC(=O)c2cc(C(=O)O)cc(C(=O)c3ccc(N(C)c4ccc(Cl)cc4)cc3)c2)cc1OC [2:14, 3-{4-[(4-Chlorophenyl)(methyl)amino]benzoyl}-5-(3,4-dimethoxyphenyl-carbamoyl)benzoic acid]"
14,757,"CCC(CC)C(=O)N(c1ccccc1)c1cc(C(=O)O)cc(C(=O)c2ccc(N(C)c3ccc(Cl)cc3)cc2)c1 [10:33, 3-{4-[(4-Chlorophenyl)(methyl)amino]benzoyl}-5-(2-ethyl-N-phenylbutan-amido)benzoic acid]"
15,49,"CN(c1ccc(Cl)cc1)c1ccc(C(=O)c2cc(Oc3ccc(Cl)cc3)cc(C(=O)O)c2)cc1 [8:21, 3-(4-Chlorophenoxy)-5-{4-[(4-chlorophenyl)(methyl)amino]benzoyl}benzoic acid]"
16,549,"CN(c1ccc(Cl)cc1)c1ccc(C(=O)c2ccc(NS(=O)(=O)c3ccc(OC(F)(F)F)cc3)cc2)c(C(=O)O)c1 [Example 5, 5-[(4-Chlorophenyl)(methyl)amino]-2-[4-(4-trifluoromethoxybenzenesulfonamido)-benzoyl]benzoic acid]"
17,61,"CN(c1ccc(Cl)cc1)c1ccc(C(=O)c2cc(Oc3ccccc3)cc(C(=O)O)c2)cc1 [8:11, 3-{4-[(4-Chlorophenyl)(methyl)amino]benzoyl}-5-phenoxybenzoic acid]"
18,549,"CN(c1ccc(Cl)cc1)c1ccc(C(=O)c2cc(NC(=O)c3cccc(C(F)(F)F)c3)cc(C(=O)O)c2)nc1 [Example 2:7, 3-{5-[(4-Chlorophenyl)(methyl)amino]picolinoyl}-5-[3-(trifluoromethyl)benzamido]-benzoic acid]"

# Same assay, conditions: 5 min; total concentration of title compound in the assay 10 μM
row,inhibition at 10 µM [%],SMILES
1,98,"CCCCCCC(=O)Nc1ccc(C(=O)c2ccc(Nc3ccc(Cl)cc3)cc2C(=O)O)cc1 [Example 4:1, 5-(4-Chlorophenylamino)-2-(4-heptylamidobenzoyl)benzoic acid]"
2,100,"CN(c1ccc(Cl)cc1)c1ccc(C(=O)c2ccc(NS(=O)(=O)c3ccc(OC(F)(F)F)cc3)cc2)c(C(=O)O)c1 [Example 5, 5-[(4-Chlorophenyl)(methyl)amino]-2-[4-(4-trifluoromethoxybenzenesulfonamido)-benzoyl]benzoic acid]"
